Experimental findings from patent publication EP1355153A1, “Screening method for agents against cardiovascular diseases” (NAMAXX GENOMICS GMBH, priority 2002, dated 2003) are described below.

In the assay the test system is heart of the chick embryo. In words: Relative stroke volume of the chick embryo heart by video microscopy (decrease by isoproterenol, rescue by metoprolol). The class given is in vivo, chicken. The following applies: for % remaining stroke volume: 50 µL isoproterenol 1 mM topically, followed by 20 µL metoprolol 15 mM or water-dimethylsulfoxide mix (isoproterenol alone), after 2 minutes at 22°C; for reduction of the stroke volume: isoproterenol alone or applied with metoprolol. How it is done:
Fertilized Bovans Goldline brown chicken eggs (12 hrs after laying, kept at 18°C) were incubated at 38°C and 45 % humidity during 72 hrs (Motorbruter 126-EM, Bruja). The eggshell was then broken and the egg white, the yolk and the embryo were removed and placed in a Petri dish (Greiner, 9.4 cm diameter). This Petri dish was placed in a bigger Petri dish (Greiner, 14 cm diameter) containing water and an incubation is performed at 38°C and 45 % humidity for 24 hrs or 48 hrs. The relative stroke volume of the heart of the chick embryo was then estimated by video microscopy using a binocular (SZX-ZB9, Olympus), a CCD camera (F-View, Soft Imaging Systems) and an image analysis software (AnalySIS Auto Software, Soft Imaging Systems). The beating heart of the embryo was filmed and the grey density of the heart area under systole was subtracted from the density of the heart area under diastole. By performing said subtraction, the so-called "relative stroke volume" is obtained, which represents a relative value instead of a volume.
50 µL of a isoproterenol (Sigma) solution (1mM, water) was then topically applied on the surface of the embryo, followed by 20 µL metoprolol (Sigma) solution (15 mM, Vol-90 % water, 10 % dimethylsulfoxide). Metoprolol is a marketed drug for human use against heart failure (M. Andrejak and M. Slama, Presse Med. 27:2025-30 (1998)). After 2 minutes at 22°C, the heart was monitored and the relative stroke volume was measured. The same experiment was performed by replacing the metoprolol solution by a water-dimethylsulfoxide mix (90 %-10 %) in order to investigate the effect of isoproterenol alone. Controls were performed with untreated embryos. The test groups of the 96 hrs old embryos (Table 1) comprise seven embryos each, while the test groups of the 120 hrs old embryos (Table 2) comprise five embryos each.

[1] abbreviates: 96 hrs old embryos, after 2 minutes.
[2] abbreviates: 120 hrs old embryos, after 2 minutes incubation.

On to `CC(C)NCC(O)c1ccc(O)c(O)c1` (centres unmarked) [Isoproterenol, isoproterenol], for which the “% remaining stroke volume” value is, setting by setting: (96 hrs old embryos (n=7)) 25,5%; (120 hrs old embryos (n=5)) 27,2%. For the same compound, the “reduction of the stroke volume” value is, setting by setting: under setting [1], 75%; under setting [2], 72%.

As to `COCCc1ccc(OCC(O)CNC(C)C)cc1` (centres unmarked) [metoprolol], the “% remaining stroke volume” value reads like this: (96 hrs old embryos (n=7)) 57,0%; (120 hrs old embryos (n=5)) 58,8%. Besides, the “reduction of the stroke volume” value reads like this: under setting [1], 43%; under setting [2], 41%.
